pIC50: −log10 of the molar value.

In this assay the target is T1, human kinase Mps-1 (Homo sapiens, UniProt P33981).
T1 construct: N-terminally GST-tagged human full length recombinant Mps-1 kinase; GST (N); purchased Invitrogen, Karslruhe, Germany PV4071
T1 sequence (P33981 1-857): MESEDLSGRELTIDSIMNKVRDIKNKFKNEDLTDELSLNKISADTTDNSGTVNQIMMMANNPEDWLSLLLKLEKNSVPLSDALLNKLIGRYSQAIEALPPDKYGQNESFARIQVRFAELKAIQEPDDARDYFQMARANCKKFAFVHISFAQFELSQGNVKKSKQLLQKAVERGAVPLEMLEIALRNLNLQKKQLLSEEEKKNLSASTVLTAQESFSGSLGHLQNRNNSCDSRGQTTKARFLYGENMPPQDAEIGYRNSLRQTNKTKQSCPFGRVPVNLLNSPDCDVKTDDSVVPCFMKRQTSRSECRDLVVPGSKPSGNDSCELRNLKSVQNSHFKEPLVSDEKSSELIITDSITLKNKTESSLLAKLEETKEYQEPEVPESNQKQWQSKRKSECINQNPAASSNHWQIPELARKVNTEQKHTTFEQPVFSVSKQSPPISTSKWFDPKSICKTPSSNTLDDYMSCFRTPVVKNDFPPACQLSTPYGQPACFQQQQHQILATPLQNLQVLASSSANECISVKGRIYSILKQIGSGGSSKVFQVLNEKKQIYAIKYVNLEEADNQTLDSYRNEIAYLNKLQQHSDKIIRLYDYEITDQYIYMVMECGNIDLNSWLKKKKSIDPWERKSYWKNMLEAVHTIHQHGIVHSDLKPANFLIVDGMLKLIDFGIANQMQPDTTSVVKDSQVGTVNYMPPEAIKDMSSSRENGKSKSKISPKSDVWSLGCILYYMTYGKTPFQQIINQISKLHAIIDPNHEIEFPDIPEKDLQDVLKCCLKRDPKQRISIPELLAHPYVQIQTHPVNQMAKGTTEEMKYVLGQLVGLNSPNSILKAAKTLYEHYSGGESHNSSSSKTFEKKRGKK
The assay can be described thus: Mps-1 kinase assay (TR-FRET). The conditions noted are these: N-terminally GST-tagged human full length recombinant Mps-1; 10 μM ATP; 1 μM peptide substrate; 15 min pre-incubation; 60 min at 22° C. The class given is biochemical. The procedure, abridged:
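N-terminally GST-tagged full-length recombinant human Mps-1, about 1 nM final, phosphorylates a biotinylated peptide. Product detected by TR-FRET from Eu-anti-phospho-Ser/Thr antibody to streptavidin-XLent after 1 h at 22° C.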
On the technique in general: TR-FRET usually uses a lanthanide donor and a delayed reading to cut background.
Regarding `O=C(NC1CC1)c1ccc(-c2cnc3c(NCCO)nc(-c4ccccc4)cn23)cc1` [Example 2-1, N-cyclopropyl-4-{8-[(2-hydroxyethyl)amino]-6-phenylimidazo[1,2-a]pyrazin-3-yl}benzamide], the pIC50 is 8.57. Turning to `CCN(CC)CCNc1nc(-c2ccccc2)cn2c(-c3ccc(C(=O)NC4CC4)cc3)cnc12` [Example 2-2, N-cyclopropyl-4-(8-{[2-(diethylamino)ethyl]amino}-6-phenylimidazo[1,2-a]pyrazin-3-yl)benzamide], the pIC50 was 7.32. Regarding `O=C(NC1CC1)c1ccc(-c2cnc3c(NCCCN4CCOCC4)nc(-c4ccccc4)cn23)cc1` [Example 2-3, N-cyclopropyl-4-(8-{[3-(morpholin-4-yl)propyl]amino}-6-phenylimidazo[1,2-a]pyrazin-3-yl)benzamide], the pIC50 was 8.16. Regarding `CC(C)CCNc1nc(-c2ccccc2)cn2c(-c3ccc(C(=O)NC4CC4)cc3)cnc12` [Example 2-4, N-cyclopropyl-4-{8-[(3-methylbutyl)amino]-6-phenylimidazo[1,2-a]pyrazin-3-yl}benzamide], the pIC50 was 8.49.

Consider `Cc1ccccc1CNc1nc(-c2ccccc2)cn2c(-c3ccc(C(=O)NC4CC4)cc3)cnc12` [Example 2-5, N-cyclopropyl-4-{8-[(2-methylbenzyl)amino]-6-phenylimidazo[1,2-a]pyrazin-3-yl}benzamide], for which the pIC50 was 8.19. `O=C(NC1CC1)c1ccc(-c2cnc3c(NCc4cccc(Cl)c4)nc(-c4ccccc4)cn23)cc1` [Example 2-6, 4-{8-[(3-chlorobenzyl)amino]-6-phenylimidazo [1,2-a]pyrazin-3-yl}-N-cyclopropylbenzamide]: the pIC50 is 7.86.

As for `O=C(NC1CC1)c1ccc(-c2cnc3c(NCCc4ccccc4)nc(-c4ccccc4)cn23)cc1` [Example 2-7, N-cyclopropyl-4-{6-phenyl-8-[(2-phenylethyl)amino]imidazo[1,2-a]pyrazin-3-yl} benzamide], the pIC50 was 7.60. With `O=C(NC1CC1)c1ccc(-c2cnc3c(NCC4CCCO4)nc(-c4ccccc4)cn23)cc1` (centres unmarked) [Example 2-8, N-cyclopropyl-4-{6-phenyl-8-[(tetrahydrofuran-2-ylmethyl)amino]imidazo[1,2-a]pyrazin-3-yl}benzamide], the pIC50 was 8.68. Consider `O=C(NC1CC1)c1ccc(-c2cnc3c(NCCCN4CCCC4=O)nc(-c4ccccc4)cn23)cc1` [Example 2-9, N-cyclopropyl-4-(8-{[3-(2-oxopyrrolidin-1-yl)propyl]amino}-6-phenylimidazo[1,2-a]pyrazin-3-yl)benzamide], for which the pIC50 is 8.32.

In the case of `CN1CCCC1CCNc1nc(-c2ccccc2)cn2c(-c3ccc(C(=O)NC4CC4)cc3)cnc12` (centres unmarked) [Example 2-10, N-cyclopropyl-4-(8-{[2-(1-methylpyrrolidin-2-yl)ethyl]amino}-6-phenylimidazo[1,2-a]pyrazin-3-yl)benzamide], the pIC50 was 7.78.

Consider `O=C(NC1CC1)c1ccc(-c2cnc3c(NCCN4CCCCC4)nc(-c4ccccc4)cn23)cc1` [Example 2-11, N-cyclopropyl-4-(6-phenyl-8-{[2-(piperidin-1-yl)ethyl]amino}imidazo[1,2-a]pyrazin-3-yl)benzamide], for which the pIC50 was 7.50. `COCCNc1nc(-c2ccccc2)cn2c(-c3ccc(C(=O)NC4CC4)cc3)cnc12` [Example 2-12, N-cyclopropyl-4-{8-[(2-methoxyethyl)amino]-6-phenylimidazo[1,2-a]pyrazin-3-yl}benzamide]: the pIC50 was 8.77. `O=C(NC1CC1)c1ccc(-c2cnc3c(NCc4ccccc4F)nc(-c4ccccc4)cn23)cc1` [Example 2-13, N-cyclopropyl-4-{8-[(2-fluorobenzyl)amino]-6-phenylimidazo[1,2-a]pyrazin-3-yl}benzamide]: the pIC50 is 8.85.

Consider `O=C(NC1CC1)c1ccc(-c2cnc3c(NCc4ccc(F)cc4)nc(-c4ccccc4)cn23)cc1` [Example 2-14, N-cyclopropyl-4-{8-[(4-fluorobenzyl)amino]-6-phenylimidazo[1,2-a]pyrazin-3-yl}benzamide], for which the pIC50 is 8.54.

The pIC50 is the IC50 on a negative log10 scale, so that one unit is a factor of ten.

Source of the values: patent US20140187548A1, “6 SUBSTITUTED IMIDAZOPYRAZINES FOR USE AS MPS-1 AND TKK INHIBITORS IN THE TREATMENT OF HYPERPROLIFERATIVE DISORDERS” (BAYER INTELLECTUAL PROPERTY GMBH, priority 2010, published 2014).
